Type in all cases: physicochemical
The nature of data set [1]: solubility of xanthommatin in carrier liquids (water, MES buffer). The note with it: oxidized xanthommatin.
Data set [2] is described as follows: xanthommatin solubility in water-based polyurethane. The note with it: pigment added as suspension in water or solution in MES buffer; Rust-Oleum 6711; judged by absence of solid after centrifugation. How it is done:
Evaluation of xanthommatin solubility in water-based polyurethane: Two quantities of solid xanthommatin, corresponding to either 0.2 or 1.6 mg of xanthommatin, were dissolved or dispersed in 0.3 mL of MES buffer (0.1 M, pH 5.5) or deionized water, and added to 0.27 g fractions of water-based polyurethane paint (Rust-Oleum 6711). Pigment-free samples were prepared as controls. After mixing, these samples were centrifuged (15,000 g, 5 minutes), and imaged using a camera (FIG. 1D).

A short description of data set [3]: pH-dependent xanthommatin solubility in water. To be noted: solid pigment suspended in acidic to alkaline water (pH 2-12), agitation, then centrifugation. On the procedure: Evaluation of pH-dependent xanthommatin solubility: Fractions of solid xanthommatin corresponding to 1 mg of starting material were dispersed in 1 mL of filtered water adjusted to pH 2.01, 4.00, 6.00, 7.00, 8.01, 10.01, or 12.00. Samples were mixed by pipetting, centrifuged at 15,000 g for 5 minutes, and imaged with a camera to record the mass of undissolved material (FIG. 1C, top panel). Each sample was then diluted to 1.5 mL with water adjusted to its respective pH, mixed by vortexing, sonicated for 5 minutes, centrifuged at 15,000 g for 5 minutes, and imaged again (FIG. 1C, bottom panel).

Turning to `NC(CC(=O)c1cccc2oc3cc(=O)c4[nH]c(C(=O)O)cc(=O)c4c-3nc12)C(=O)O` (centres unmarked) [xanthommatin, 11-(3-amino-3-carboxypropanoyl)-1,5-dioxo-4H-pyrido[3,2-a]phenoxazine-3-carboxylic acid], in data set [1] (MES buffer), the “solubility in MES buffer (carrier liquid)” value was “fully soluble”. The “solubility in water (carrier liquid)” value in data set [1] (water) is recorded as “only slightly soluble”. Further, the “solubility in water-based polyurethane paint base” value in data set [2] is “fully soluble”. Also, the “solubility in water, acidic conditions” value in data set [3] (acidic conditions) was “sparingly soluble/insoluble”. Moreover, in data set [3] (basic conditions), the “solubility in water, basic conditions” value is recorded as “most soluble”.

These data come from patent US20250320362A1, “Suspensions and Solutions of Dyes For Colored Coatings” (Northeastern University, priority 2022, published 2025).
